# Assay results from US8440617B2, “Hyperbaric treatment in wound healing” (The Trustees of the University of Pennsylvania, priority 2007, dated 2013).
# Entries after “also recorded” stand apart in the source; their conditions may differ.
# How the values were obtained:
# Type in all cases: in vivo, mouse
# Settings in all cases: diabetic mice treated with insulin
# [1] = test system: circulating EPCs (CXCR4+/VEGFR2+, Tie2+/VEGFR2+); assay: Circulating EPCs by flow cytometry in STZ-diabetic mice
# Protocol: Tie2-GFP, wild-type or chimeric FVB mice at 6-12 wk of age were treated with STZ (Sigma-Aldrich) to induce diabetes. Mice were rendered diabetic by i.p. administration of 60 mg/kg STZ in 50 mM sodium citrate, pH 4.5, daily for 5 d. Control mice were treated with daily injections of citrate buffer. Serum glucose was measured from the mouse tail vein using a glucometer. Once serum glucose reached 250 mg/dL, mice were followed with daily measurements for 1 wk prior to use in experiments. Serum glucose levels in STZ mice averaged 461 mg/dL with a range of 372-520 mg/dL, while control mice serum glucose mean level was 120 mg/dL with a range of 94-135 mg/dL. Wounds were induced on the ventral surface of the mouse thigh using a 4 mm punch biopsy. Full-thickness skin was removed, exposing the underlying muscle.
# For HBO treatment, mice were placed in an animal hyperbaric chamber (Reneau Corp.) and subjected to 100% oxygen at 2.4 atmospheres absolute (ATA) for 90 min (Davis Wound Healing Protocol). To measure continuous, real-time BM NO levels, NO microelectrodes was inserted into the femoral marrow cavity as previously described. An osteotomy was created on the patellar surface of the murine femur using a 25 G beveled needle, allowing the electrode to be lowered into the marrow space when the animal was placed in the hyperbaric chamber. In some mice, pretreatment with L-NAME (40 mg/kg i.p.) (Sigma-Aldrich) was given 2 h prior to exposure to HBO.
# Mobilization of EPCs into circulation was studied using flow cytometry as previously described. Cells isolated from mice were incubated with various Abs (BD Biosciences). Isotype matched mouse immunoglobulins served as controls. One million viable cells were analyzed per sample using an LSR2 multicolor flow cytometer (BD Biosciences). Data was analyzed using FlowJo software (Treestar, Inc.).
# Physiologically, increased levels of BM NO result in activation of MMP-9 and conversion of kit ligand to its soluble form, ultimately generating EPC release into circulation. To study the effects of the hyperoxia-induced rise in NO levels in the marrow cavity on mobilization of EPCs into circulation, peripheral blood from diabetic mice was analyzed for EPCs using flow cytometry. A determination of whether hyperoxia, induced by HBO, increases the number of circulating EPCs in the peripheral blood of diabetic mice was made. Specifically, peripheral blood of diabetic mice was examined 18 h after a single HBO treatment. After excluding dead DAPI^+labeled cells, candidate lymphocytes, identified by their typical appearance on forward and side scatter, were gated and CD45^+/CD3^+cell populations were excluded. […] Therefore, several marker combinations were used to quantitate circulating EPCs. […]
# [2] = test system: SDF-1α in wound tissue; assay: Wound SDF-1α level (immunostaining)
# Excerpt: For immunostaining, paraffin embedded serial sections (5 μm) were first underwent standard deparaffinizing and rehydration procedures and then probed with various Abs. To assess wound SDF-1α^+ cells, sections were double-stained with HTC-conjugated anti-SDF-1α and PE-conjugated different tissue-specific Abs (eBiosciences). To detect blood vessels in wound, sections were stained with HTC-conjugated anti-VEGFR2Ab. For examination of wound EPC recruitment in BM transplantation experiment, sections were double-stained with FITC-GFP and PE-VEGFR2 (BD Biosciences). Nuclei were counterstained with Hoescht dye. Masson's trichrome staining and H&E staining were performed using standard method and all reagents were from Sigma-Aldrich. Tissue sections were analyzed using fluorescence microscopy and ImageJ (NIH) software to quantitate fluorescent intensity. In trichrome stained slides, blue stain (collagen content) was also quantitatively analyzed by ImageJ.
# [3] = test system: BM eNOS phosphorylation; assay: Western blot of bone marrow eNOS and phospho-eNOS
# Protocol: Isolation of whole BM from FVB/NJ mice (n=12/group) was obtained by flushing harvested femurs and tibias with PBS/2% FBS. Red blood cells were removed by Red Cell Lysis Buffer (Sigma-Aldrich). Isolated BM cells were then lysed and protein concentrations were determined by DC protein assay (Bio-Rad Laboratories). Equal amounts of protein were subjected to 4-12% SDS gel electrophoresis under reducing conditions. The transferred PVDF membranes were probed with primary Ab (anti-eNOS and anti-phospho-eNOS (Ser^1177) (BD Biosciences) diluted 1:500 in 1% milk in TBST buffer and then incubated with HRP-conjugated second Ab (DakoCytomation Inc.). Proteins were visualized using enhanced chemiluminescence (Amersham Bioscience).
# In diabetic patients, circulating EPCs are decreased in both number and function, and so it was hypothesized that BM eNOS activation is impaired in diabetes. To examine this question, BM was isolated from streptozocin-induced (STZ-induced) diabetic and nondiabetic mice and analyzed via Western blot for levels of total and phosphorylated eNOS protein. Although no changes in the amount of total eNOS protein were observed, the levels of biologically active phosphorylated eNOS protein were decreased in diabetic mice as compared with nondiabetic controls (FIG. 12A). […]
substance,measurement,setting,value
"insulin: human insulin (NPH), 6 U/kg twice/d i.p.",EPC mobilization,[1],little effect; also recorded: does not increase
same,impaired wound SDF-1α production,[2],failed to improve
same,reversal of impaired BM eNOS phosphorylation,[3],little effect
same,reversal of impaired BM eNOS phosphorylation,[3]; listed as Insulin,failed to restore
